# Measured values published in US8841312B2, “Fused pyridine, pyrimidine and triazine compounds as cell cycle inhibitors” (Amgen Inc., priority 2007, dated 2014).
# Biological target: Cdk4/CyclinD1 (Homo sapiens (Human), UniProt P11802)
# Experiment: Cdk4 kinase inhibition assay with recombinant Cdk4/CyclinD1, Rb substrate, [33P]-ATP filter plate
# Assay type: biochemical
# Details: 25 μM ATP, read-out: Cdk 4 IC50
# Procedure: The Cdk4 and Cdk6 inhibitory activity of the compounds is measured with a kinase inhibition assay using recombinant Cdk4/CyclinD1 or Cdk6/CyclinD3 protein complexes. The protein substrate used in the assay is the retinoblastoma protein (Rb). The kinase reactions are carried out in a 96-well filter plate (MSDV N6B50, Millipore). […] The mixture is incubated at room temperature for 1 hour and the proteins precipitated with an equal volume of 20% TCA. The plates are washed with 10% TCA according to the manufacturer's instruction and dried at room temperature. The amount of the phosphorylated Rb is determined with a TopCount (PerkinElmer). The IC50 of a compound is determined by nonlinear regression curve fitting using software program Prism 5 (GraphPad Software).
# Sequence of Cdk4/CyclinD1 (P11802 whole entry): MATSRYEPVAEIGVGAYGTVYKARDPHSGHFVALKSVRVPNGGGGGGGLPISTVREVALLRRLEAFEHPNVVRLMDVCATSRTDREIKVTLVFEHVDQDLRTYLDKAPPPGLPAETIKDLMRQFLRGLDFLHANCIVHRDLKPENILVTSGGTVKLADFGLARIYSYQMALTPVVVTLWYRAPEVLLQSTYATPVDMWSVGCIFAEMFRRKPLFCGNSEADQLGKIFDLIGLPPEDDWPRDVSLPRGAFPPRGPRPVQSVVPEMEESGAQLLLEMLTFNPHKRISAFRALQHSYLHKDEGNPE
# Sequence of Cdk4/CyclinD1 (P24385 whole entry partner): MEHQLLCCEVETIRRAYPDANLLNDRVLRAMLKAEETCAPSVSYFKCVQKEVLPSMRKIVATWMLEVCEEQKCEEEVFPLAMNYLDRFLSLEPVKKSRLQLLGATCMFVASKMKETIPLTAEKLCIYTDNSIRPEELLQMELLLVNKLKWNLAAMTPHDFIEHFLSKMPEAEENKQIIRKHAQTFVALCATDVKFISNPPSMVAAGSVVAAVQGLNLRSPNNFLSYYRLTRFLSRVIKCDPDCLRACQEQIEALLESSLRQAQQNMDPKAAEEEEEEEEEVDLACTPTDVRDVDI
row,IC50 [nM],SMILES
1,12,CC1CN(c2cnc(Nc3ncc4c5ccncc5n(C5CCCC5)c4n3)cn2)CC(C)N1 (centres unmarked) [Example 79]
2,5.5,"OCCN1CCN(c2ccc(Nc3ncc4c5ccnc(Cl)c5n(C5CCCC5)c4n3)nc2)CC1 [Example 166, 2-(4-(6-((8-Chloro-9-cyclopentyl-9H-pyrido[4′,3′:4,5]pyrrolo[2,3-d]pyrimidin-2-yl)amino)-3-pyridinyl)-1-piperazinyl)ethanol]"
3,4.2,N#CC1CCN(c2ccc(Nc3ncc4c5ccncc5n(C5CCCC5)c4n3)nn2)C1 (centres unmarked) [Example 118]
4,271,C[C@@H](O)Cn1c2cnccc2c2cnc(Nc3ccc(N4CCC(N(C)C)CC4)nn3)nc21 [Example 416]
5,820,O[C@H]1CCC[C@@H]1n1c2cnccc2c2cnc(Nc3ccc(N4CCNCC4)nn3)nc21 [Example 404]
6,9.8,"CN(C)C1CCN(c2ccc(Nc3ncc4c5ccnc(O)c5n(C5CCC(C)(C)CC5)c4n3)nn2)CC1 [Example 211, 2-((6-(4-(dimethylamino)-1-piperidinyl)-3-pyridazinyl)amino)-9-(4,4-dimethylcyclohexyl)-9H-pyrido[4′,3′:4,5]pyrrolo[2,3-d]pyrimidin-8-ol]"
7,35,"Fc1nccc2c3cnc(Nc4ccc(OC5CCNCC5)nn4)nc3n(C3CCCC3)c12 [Example 269, 9-Cyclopentyl-8-fluoro-N-(6-(4-piperidinyloxy)-3-pyridazinyl)-9H-pyrido[4′,3′:4,5]pyrrolo[2,3-d]pyrimidin-2-amine]"
8,162,O[C@@H]1CCC[C@@H]1n1c2cnccc2c2cnc(Nc3ccc(N4CCNCC4)nn3)nc21 [Example 362]
9,227,C[C@H](CO)n1c2cnccc2c2cnc(Nc3ccc(N4CCN[C@@H](C)C4)nn3)nc21 [Example 387]
10,360,CNC1CCN(c2ccc(Nc3ncc4c5ccncc5n([C@H]5CCC[C@@H]5O)c4n3)nn2)CC1 [Example 406]
11,9.6,CN(C)C1CCN(c2ccc(Nc3ncc4c5ccncc5n(C5CCCC5)c4n3)nc2)CC1 [Example 12]
12,1.4,CNC1CCN(c2ccc(Nc3ncc4c5ccncc5n(C5CCCC5)c4n3)nc2)CC1 [Example 75]
13,3.6,c1cc2c3cnc(Nc4ccc(NCC5CCNC5)cn4)nc3n(C3CCCC3)c2cn1 (centres unmarked) [Example 70]
14,5.9,CN1CCN(c2ccc(Nc3ncc4c5ccncc5n(C5CCCC5)c4n3)nn2)CC1 [Example 112]
15,2,NC1CCN(c2ccc(Nc3ncc4c5cc[nH]c(=O)c5n(C5CCCC5)c4n3)nn2)CC1 [Example 126]
16,14,C[C@H](O)Cn1c2cnccc2c2cnc(Nc3ccc(N4CCN[C@@H](C)C4)nn3)nc21 [Example 412]
17,1.3,NCC1CCCN(c2ccc(Nc3ncc4c5ccncc5n(C5CCCC5)c4n3)nc2)C1 (centres unmarked) [Example 67]
18,211,C[C@H]1CN(c2ccc(Nc3ncc4c5ccncc5n([C@H]5CCC[C@H]5O)c4n3)nn2)CCN1 [Example 363]
19,48.1,CN(C)C1CCN(c2ccc(Nc3ncc4c5cc[nH]c(=O)c5n(C5CCCC5)c4n3)nc2)CC1 [Example 123]
20,115,C[C@@H](O)Cn1c2cnccc2c2cnc(Nc3ccc(N4CCNC(C)(C)C4)cn3)nc21 [Example 426]
21,330,O[C@@H]1CCN(c2ccc(Nc3ncc4c5ccncc5n([C@H]5CCC[C@H]5O)c4n3)nn2)C1 [Example 366]
22,2.6,"CN(C)C1CCN(c2ccc(Nc3ncc4c5ccncc5n(C5CCC(C)(C)CC5)c4n3)cn2)CC1 [Example 205, N-(6-(4-(dimethylamino)-1-piperidinyl)-3-pyridinyl)-9-(4,4-dimethylcyclohexyl)-9H-pyrido[4′,3′:4,5]pyrrolo[2,3-d]pyrimidin-2-amine]"
23,11,C[C@@H](CO)n1c2cnccc2c2cnc(Nc3ccc(N4CCNC(C)(C)C4)nn3)nc21 [Example 379]
24,6.4,c1cc2c3cnc(Nc4cnc(N5CCCNCC5)cn4)nc3n(C3CCCC3)c2cn1 [Example 86]
25,59,CNC1CCN(c2ccc(Nc3ncc4c5ccncc5n([C@@H]5CCOC5)c4n3)nn2)CC1 [Example 428]
26,3.9,CN(CCO)c1ccc(Nc2ncc3c4ccncc4n(C4CCCC4)c3n2)nn1 [Example 291]
